# In ChEMBL document CHEMBL3045723, “Synthesis of novel 3-(5-sulfanyl-1,3,4-oxadiazol-2-yl)-2H-chromen-2-one condensed s-triazinyl piperazines and piperidines as antimicrobial agents” (2012):
# Experiments:
# Format in all cases: functional
# Aspergillus niger [1] = assay: Antifungal activity against Aspergillus niger MTCC 282 after 24 hr by agar disk diffusion test; note: test concentration or dose not given here
# Proteus vulgaris [2] = assay: Antibacterial activity against Proteus vulgaris MTCC 1771 after 24 hr by agar disk diffusion test; note: test concentration or dose not given here
# Pseudomonas aeruginosa [3] = assay: Antibacterial activity against Pseudomonas aeruginosa MTCC 741
# Staphylococcus aureus [4] = assay: Antibacterial activity against Staphylococcus aureus MTCC 96 after 24 hr; conditions: MTCC 96, 24 h
# Salmonella typhi [5] = assay: Antibacterial activity against Salmonella enterica subsp. enterica serovar Typhi MTCC 733 after 24 hr; conditions: MTCC 733, 24 h
# Bacillus cereus [6] = assay: Antibacterial activity against Bacillus cereus MTCC 619 after 24 hr; conditions: MTCC 619, 24 h
# Salmonella typhi [7] = assay: Antibacterial activity against Salmonella enterica subsp. enterica serovar Typhi MTCC 733 after 24 hr by agar disk diffusion test
# Escherichia coli [8] = assay: Antibacterial activity against Escherichia coli MTCC 739 after 24 hr by agar disk diffusion test
# Candida albicans [9] = assay: Antifungal activity against Candida albicans MTCC 183 after 48 hr; conditions: MTCC 183, 48 h
# Aspergillus niger [10] = assay: Antifungal activity against Aspergillus niger MTCC 282 after 48 hr; conditions: MTCC 282, 48 h
# Pseudomonas aeruginosa [11] = assay: Antibacterial activity against Pseudomonas aeruginosa MTCC 741 after 24 hr by agar disk diffusion test
# Bacillus cereus [12] = assay: Antibacterial activity against Bacillus cereus MTCC 619 after 24 hr by agar disk diffusion test; note: test concentration or dose not given here
# Shigella flexneri [13] = assay: Antibacterial activity against Shigella flexneri after 24 hr by agar disk diffusion test; note: test concentration or dose not given here
# Klebsiella pneumoniae [14] = assay: Antibacterial activity against Klebsiella pneumoniae MTCC 109 after 24 hr by agar disk diffusion test
# Klebsiella pneumoniae [15] = assay: Antibacterial activity against Klebsiella pneumoniae MTCC 109 after 24 hr; conditions: MTCC 109, 24 h
# Staphylococcus aureus [16] = assay: Antibacterial activity against Staphylococcus aureus MTCC 96 after 24 hr by agar disk diffusion test
# Escherichia coli [17] = assay: Antibacterial activity against Escherichia coli MTCC 739 after 24 hr; conditions: MTCC 739, 24 h
# Shigella flexneri [18] = assay: Antibacterial activity against Shigella flexneri after 24 hr
# Proteus vulgaris [19] = assay: Antibacterial activity against Proteus vulgaris MTCC 1771 after 24 hr; conditions: MTCC 1771, 24 h
# Candida albicans [20] = assay: Antifungal activity against Candida albicans MTCC 183 after 24 hr by agar disk diffusion test; note: test concentration or dose not given here
compound,measurement,setting,value
O=c1oc2ccccc2cc1-c1nnc(Sc2nc(Oc3cccc4cccnc34)nc(N3CCN(c4ccccn4)CC3)n2)o1,inhibition zone (IZ),Aspergillus niger [1],14 mm
same,inhibition zone (IZ),Proteus vulgaris [2],14 mm
same,MIC,Pseudomonas aeruginosa [3],100 µg/mL
same,MIC,Staphylococcus aureus [4],50 µg/mL
same,MIC,Salmonella typhi [5],100 µg/mL
same,MIC,Bacillus cereus [6],50 µg/mL
same,inhibition zone (IZ),Salmonella typhi [7],14 mm
same,inhibition zone (IZ),Escherichia coli [8],15 mm
same,MIC,Candida albicans [9],100 µg/mL
same,MIC,Aspergillus niger [10],100 µg/mL
same,inhibition zone (IZ),Pseudomonas aeruginosa [11],18 mm
same,inhibition zone (IZ),Bacillus cereus [12],21 mm
same,inhibition zone (IZ),Shigella flexneri [13],22 mm
same,inhibition zone (IZ),Klebsiella pneumoniae [14],22 mm
same,MIC,Klebsiella pneumoniae [15],25 µg/mL
same,inhibition zone (IZ),Staphylococcus aureus [16],21 mm
same,MIC,Escherichia coli [17],100 µg/mL
same,MIC,Shigella flexneri [18],50 µg/mL
same,MIC,Proteus vulgaris [19],100 µg/mL
same,inhibition zone (IZ),Candida albicans [20],17 mm
O=c1oc2ccccc2cc1-c1nnc(Sc2nc(Oc3cccc4cccnc34)nc(N3CCN(Cc4ccccc4)CC3)n2)o1,inhibition zone (IZ),Aspergillus niger [1],<10 mm
same,inhibition zone (IZ),Proteus vulgaris [2],<10 mm
same,MIC,Pseudomonas aeruginosa [3],100 µg/mL
same,MIC,Staphylococcus aureus [4],100 µg/mL
same,MIC,Salmonella typhi [5],100 µg/mL
same,MIC,Bacillus cereus [6],100 µg/mL
same,inhibition zone (IZ),Salmonella typhi [7],<10 mm
same,inhibition zone (IZ),Escherichia coli [8],16 mm
same,MIC,Candida albicans [9],100 µg/mL
same,MIC,Aspergillus niger [10],100 µg/mL
same,inhibition zone (IZ),Pseudomonas aeruginosa [11],19 mm
same,inhibition zone (IZ),Bacillus cereus [12],17 mm
same,inhibition zone (IZ),Shigella flexneri [13],13 mm
same,inhibition zone (IZ),Klebsiella pneumoniae [14],<10 mm
same,MIC,Klebsiella pneumoniae [15],100 µg/mL
same,inhibition zone (IZ),Staphylococcus aureus [16],13 mm
same,MIC,Escherichia coli [17],100 µg/mL
same,MIC,Shigella flexneri [18],100 µg/mL
same,MIC,Proteus vulgaris [19],100 µg/mL
same,inhibition zone (IZ),Candida albicans [20],<10 mm
CC(C)N1CCN(c2nc(Oc3cccc4cccnc34)nc(Sc3nnc(-c4cc5ccccc5oc4=O)o3)n2)CC1,inhibition zone (IZ),Aspergillus niger [1],12 mm
same,inhibition zone (IZ),Proteus vulgaris [2],15 mm
same,MIC,Pseudomonas aeruginosa [3],25 µg/mL
same,MIC,Staphylococcus aureus [4],100 µg/mL
same,MIC,Salmonella typhi [5],50 µg/mL
same,MIC,Bacillus cereus [6],100 µg/mL
same,inhibition zone (IZ),Salmonella typhi [7],20 mm
same,inhibition zone (IZ),Escherichia coli [8],16 mm
same,MIC,Candida albicans [9],100 µg/mL
same,MIC,Aspergillus niger [10],100 µg/mL
same,inhibition zone (IZ),Pseudomonas aeruginosa [11],21 mm
same,inhibition zone (IZ),Bacillus cereus [12],16 mm
same,inhibition zone (IZ),Shigella flexneri [13],24 mm
same,inhibition zone (IZ),Klebsiella pneumoniae [14],14 mm
same,MIC,Klebsiella pneumoniae [15],100 µg/mL
same,inhibition zone (IZ),Staphylococcus aureus [16],19 mm
same,MIC,Escherichia coli [17],100 µg/mL
same,MIC,Shigella flexneri [18],25 µg/mL
same,MIC,Proteus vulgaris [19],100 µg/mL
same,inhibition zone (IZ),Candida albicans [20],11 mm
COc1ccc(CN2CCN(c3nc(Oc4cccc5cccnc45)nc(Sc4nnc(-c5cc6ccccc6oc5=O)o4)n3)CC2)c(OC)c1OC,inhibition zone (IZ),Aspergillus niger [1],24 mm
same,inhibition zone (IZ),Proteus vulgaris [2],20 mm
same,MIC,Pseudomonas aeruginosa [3],12.5 µg/mL
same,MIC,Staphylococcus aureus [4],12.5 µg/mL
same,MIC,Salmonella typhi [5],12.5 µg/mL
same,MIC,Bacillus cereus [6],12.5 µg/mL
same,inhibition zone (IZ),Salmonella typhi [7],24 mm
same,inhibition zone (IZ),Escherichia coli [8],19 mm
same,MIC,Candida albicans [9],50 µg/mL
same,MIC,Aspergillus niger [10],25 µg/mL
same,inhibition zone (IZ),Pseudomonas aeruginosa [11],22 mm
same,inhibition zone (IZ),Bacillus cereus [12],23 mm
same,inhibition zone (IZ),Shigella flexneri [13],23 mm
same,inhibition zone (IZ),Klebsiella pneumoniae [14],18 mm
same,MIC,Klebsiella pneumoniae [15],100 µg/mL
same,inhibition zone (IZ),Staphylococcus aureus [16],23 mm
same,MIC,Escherichia coli [17],100 µg/mL
same,MIC,Shigella flexneri [18],25 µg/mL
same,MIC,Proteus vulgaris [19],100 µg/mL
same,inhibition zone (IZ),Candida albicans [20],22 mm
O=c1oc2ccccc2cc1-c1nnc(Sc2nc(Oc3cccc4cccnc34)nc(N3CCOCC3)n2)o1,inhibition zone (IZ),Aspergillus niger [1],12 mm
same,inhibition zone (IZ),Proteus vulgaris [2],<10 mm
same,MIC,Pseudomonas aeruginosa [3],100 µg/mL
same,MIC,Staphylococcus aureus [4],100 µg/mL
same,MIC,Salmonella typhi [5],100 µg/mL
same,MIC,Bacillus cereus [6],100 µg/mL
same,inhibition zone (IZ),Salmonella typhi [7],16 mm
same,inhibition zone (IZ),Escherichia coli [8],<10 mm
same,MIC,Candida albicans [9],100 µg/mL
same,MIC,Aspergillus niger [10],100 µg/mL
same,inhibition zone (IZ),Pseudomonas aeruginosa [11],16 mm
same,inhibition zone (IZ),Bacillus cereus [12],15 mm
same,inhibition zone (IZ),Shigella flexneri [13],11 mm
same,inhibition zone (IZ),Klebsiella pneumoniae [14],22 mm
same,MIC,Klebsiella pneumoniae [15],25 µg/mL
same,inhibition zone (IZ),Staphylococcus aureus [16],14 mm
same,MIC,Escherichia coli [17],100 µg/mL
same,MIC,Shigella flexneri [18],100 µg/mL
same,MIC,Proteus vulgaris [19],100 µg/mL
same,inhibition zone (IZ),Candida albicans [20],<10 mm
